One data set is described as follows: in vitro. Conditions: human.
Another data set deals with HCV subgenomic replicon. In words: Anti-HCV activity in HCV subgenomic replicon system (Huh7 cells, firefly luciferase). Conditions: for Therapeutic Index in HCV replicon system CC50/IC50: Huh7 HCV replicon system. How it is done: The antiviral (anti-HCV) activity of epirubicin and its derivatives was tested in vitro in cell culture model using the HCV subgenomic replicon stably transfected into Huh7 cells line (clone BM4.5) (Gao et al., J. Virol. 2001) and/or in Huh7 cells replicating selectable subgenomic HCV replicon carrying firefly luciferase gene (Vrolijk et al. J. Virol. Method. 2003).
The BM4.5 Huh7 cells were grown in cell culture medium in presence of varying concentrations of epirubicin hydrochloride (BNE00) or epirubicin derivatives. The media and drug were changed everyday for 5 days. After 5 days of treatment cells were lysed and total RNA extracted as described (Gao et al., J. Virol. 2001). The isolated RNA was then assayed for presence of HCV replication by Northern Blot analysis, using a HCV probe targeting the NS5B region of HCV. […] The cell lines were treated everyday with different epirubicin hydrochloride (BNE00) or epirubicin derivatives concentrations for 5 days and at the end of treatment, the RNA from the treated cells were isolated. The total RNA was then probed with a HCV specific probe using Northern blot analysis to detect the HCV RNA. The resulting blot was then exposed to phosphorimager densitometry and the viral replication quantified.
For Huh7 cells replicating selectable subgenomic HCV replicon carrying firefly luciferase gene cells were treated with epirubicin hydrochloride (BNE00) or epirubicin derivatives as described above for BM4,5 cells. Following the treatment, cells were lysed and firefly luciferase activity was measured using Luminoskan device (Thermolabsystem) as described (Vrolijk et al. J. Virol. Methods. 2003).

The next data set can be described thus: in vivo. The settings on record: both, BALB/C, mouse, ip.
Data set [1] in a line: Cytotoxic activity in Huh7 cells replicating the HCV replicon. The settings on record: human.
A further data set concerns HCV. Description: Inhibition of HCV replication in chronically HCV-infected human PBMC (RT-PCR). Conditions: for IC50: read-out: Anti-HCV activity in PBMC IC50; for IC90: read-out: Anti-HCV activity in PBMC IC90. The procedure:
In addition, the inhibition of HCV replication by epirubicin hydrochloride (BNE00), N3′-acetylepirubicin (BNE01), and N3′,O4′,O14-triacetylepirubicin (BNE02) were analyzed in chronically HCV-infected human peripheral blood monocyte cells (PBMC) cultures which was performed as follows. PBMC were isolated from HCV-infected patients blood by Ficoll Pague centrifugation placed on Petri dishes and cultured in 10% FCS, RPMI medium containing PHA (3 μg/ml) according to Laskus et al. (J Infect Dis. 2000) and enriched with known concentrations of BNE00, BNE01, BNE02 in standard conditions (37° C., 5% CO2). On day 5 and 14 of the culture the cells were collected and after extraction, HCV RNA was […] estimated by real-time Reverse Transcriptase Polymerase Chain Reaction using SYBR Green system (FIG. 3). Semiquantitative estimation of HCV RNA was also performed by Reverse Transcriptase Polymerase Chain Reaction, and visualized after electrophoresis through a 1% agarose gel, using ethidium bromide staining (FIG. 4).

Another data set has as its system BALB/C mice. Description: In vivo acute toxicity in mice (OECD Guideline No 401).
Another data set deals with Huh7 cells. In words: Cytotoxic activity in Huh7 cells replicating the HCV replicon. Conditions: read-out: Cytotoxic activity in Huh7 Cells, CC50; Huh7 cells replicating subgenomic HCV replicon carrying firefly luciferase gene.
The mark [2] stands for this setting: Hepatitis C virus, PBMC, in Homo sapiens.
[3] abbreviates: chronically HCV-infected human PBMC.
The mark [4] stands for this setting: read-out: Anti-HCV activity in HCV replicon system IC50, Huh7 cells, subgenomic HCV replicon carrying firefly luciferase gene.

Read-outs that look alike come from different tables or passages of the source.

Description for BALB/C mice: The in vivo determination of acute toxicity of drugs was performed in mice according to “OECD Guidelines for Testing of Chemicals” (Guideline No 401). The study was performed in BALB/C mice and the test substance was administrated intraperitoneally in dose of 1; 5 and 10 mg/kg b.w. Ten males and 10 females were used for each dose. A control group receiving only solvent was run concurrently.

In the case of `COc1cccc2c1C(=O)c1c(O)c3c(c(O)c1C2=O)C[C@@](O)(C(=O)CO)C[C@@H]3O[C@H]1C[C@H](N)[C@@H](O)[C@H](C)O1` [BNE00, 7-O-(3′-amino-2′,3′,6′-trideoxy-α,β-L-arabinohexopyranosyl)-adriamycinone, reference compound], the values for the CC50 (in “in vitro”; in data set [1]) were 1800 nM and 3 nM, respectively. The compound further displayed a CC90 in the data set “in vitro” of 2400 nM. In addition, the half-maximal inhibitory concentration (IC50) in the data set on HCV subgenomic replicon (Hepatitis C virus, Huh-7, read-out: Anti-HCV activity in HCV replicon system IC50) is 2 nM; with HCV subgenomic replicon (Hepatitis C virus, Huh-7, read-out: anti-HCV IC50), 2 to 4 nM; with HCV (setting [2]), 320 nM. Besides, the “Therapeutic Index in HCV replicon system CC50/IC50” value in the data set on HCV subgenomic replicon is on record as 1.5. The compound also showed a 50% lethal dose (LD50) in the data set “in vivo” of 26.2 mg/kg. Also, the IC90 in the data set on HCV (setting [2]) came to 460 nM. Further, the “Therapeutic Index in PBMC TI50 CC50/IC50” value with HCV (setting [3]) was found to be 5.62.

In the data set on PBMC, `COc1cccc2c1C(=O)c1c(O)c3c(c(O)c1C2=O)C[C@@](O)(C(=O)CO)C[C@@H]3O[C@H]1C[C@@H](NC(C)=O)[C@H](O)[C@H](C)O1` [BNE01, N3′-acetyl-4′-epidoxorubicin] yielded a CC50 of 33000 nM and a CC90 of 91000 nM. Moreover, in the data set on HCV (setting [3]), the “Therapeutic Index in PBMC TI50 CC50/IC50” value is on record as 91.7, the IC50 was 360 nM and the IC90 was 470 nM.

In the data set on PBMC, `COc1cccc2c1C(=O)c1c(O)c3c(c(O)c1C2=O)CC(O)(C(=O)COC(C)=O)CC3OC1CC(NC(C)=O)C(OC(C)=O)C(C)O1` (stereo not shown) [BNE02, N3′, O4′, O14-triacetyl-4′-epidoxorubicin] came in with a CC50 of 49000 nM and a CC90 of 120000 nM. Further, the “LD50 (in vivo acute toxicity)” value in the data set with BALB/C mice (BALB/C mice, intraperitoneal) is 1355.08 mg/kg b.w. The “fold lower acute toxicity compared with epirubicin hydrochloride (BNE00)” value in the data set with BALB/C mice (LD50 ratio, mice) is reported as 52 fold. Also, in the data set with HCV subgenomic replicon, the “Therapeutic Index in HCV replicon system CC50/IC50” value is 10. Besides, the IC50 in the data set on HCV subgenomic replicon (setting [4]) came out at 500 nM. Also, the CC50 in the data set on Huh7 cells is 5000 nM. Also, in the data set with HCV (setting [3]), the “Therapeutic Index in PBMC TI50 CC50/IC50” value is greater than 490.0, the IC50 is less than 100 nM and the IC90 came to 500 nM.

Turning to `COc1cccc2c1C(=O)c1c(O)c3c(c(O)c1C2=O)CC(O)(C(=O)CO)CC3OC1CC(N(C)C)C(O)C(C)O1` (stereo not shown) [BNE06, 3′-N,N-Dimethyl-4′-epidoxorubicin], the “Therapeutic Index in HCV replicon system CC50/IC50” value in the data set on HCV subgenomic replicon is given as 3.0. In the data set on HCV subgenomic replicon (setting [4]), the IC50 is 18 nM. For the same compound, the CC50 in the data set with Huh7 cells stood at 60 nM.

The record behind these values is patent US8173610B2 (priority 2005, dated 2012).
